Results as given in patent US11203636B2, “Treatment of existing left ventricular heart failure” (YALE UNIVERSITY, priority 2017, dated 2021).

How the values were obtained:
[1] = test system: NKCC2, ENaC-beta, and NCC proteins in mouse M1 CCD cell line; experiment: Expression of NKCC2, ENaC-beta and NCC in M1 CCD cells after treatment with IL-6 and/or Spironolactone (immunoblotting); format: cell-based; conditions: FIGS. 5A-5C
Procedure: (§1) The mouse M1 CCD cell line (American Type Culture Collection (ATCC), Cat #CRL-2038) was maintained the cell culture medium containing equal amount of DMEM (Sigma-Aldrich, Cat #D6046) and Han F12 (Sigma-Aldrich, Cat #11765-047), supplemented with 5% Fetal Bovine Serum (FBS), 1% Penicillin-Streptomycin (Thermo Fisher Scientific, Cat #15140-122), 1% Insulin-Transferrin-Selenium (Thermo Fisher Scientific, Cat #51500-056) and 100 nM Dexamethasone (Sigma-Aldrich, Cat #D4902-100MG).
(§2) M1 CCD cells were seeded at 1 million/well in 6-well plate in the cell culture medium, and incubated overnight in a 37° C., 5% CO2 incubator on Day 0. The cell culture medium was changed to DMEM/F12 serum-free medium on Day 1 and the cells were incubated overnight in a 37° C., 5% CO2 incubator. On Day 2, the serum-free medium was removed and the cell culture medium was added to each well. Spironolactone (Selleckchem, Cat #54054) was added at the final concentration of 1 μM or 100 μM 10 min before the addition of IL-6 (Sigma-Aldrich, Cat #SRP3096-20UG) at the final concentration of 10 ng/mL, 100 ng/mL, or 500 ng/mL. A control well without Spironolactone or IL-6 was included. […] The sample were analyzed by immunoblotting using anti-NKCC2 antibody (Millipore, Cat #AB3562P), anti-ENaC-beta antibody (Millipore, Cat #AB3532P), or anti-NCC antibody (Millipore, Cat #AB3553) and the protein expression was quantified. […]

[2] = test system: NKCC2, ENaC-beta, and NCC proteins in mouse M1 CCD cell line; experiment: Expression of NKCC2, ENaC-beta and NCC in M1 CCD cells after treatment with IL-6 and/or Ruxolitinib (immunoblotting); format: cell-based; conditions: IL-6 10, 100 or 500 ng/mL, 24 hours, FIGS. 4A-4C
Procedure: as §1
as §2, with “Ruxolitinib” for “Spironolactone”, “#51378)” for “#54054)”

Compound: CC(=O)S[C@@H]1CC2=CC(=O)CC[C@]2(C)[C@H]2CC[C@@]3(C)[C@@H](CC[C@@]34CCC(=O)O4)[C@H]12 [Spironolactone]
- effect of Spironolactone on the IL-6 effect on ion transporter proteins (NKCC2, ENaC-beta, NCC) ([1]; Spironolactone 1 μM or 100 μM added 10 min before IL-6, 24 hours): blocked the effect of IL-6 on the ion transporter proteins

Compound: IL-6: pro-inflammatory cytokine added to cells (Sigma-Aldrich, Cat #SRP3096-20UG)
- expression of NKCC2, ENaC-beta, and NCC after treatment of IL-6 [2]: increased the expression of NKCC2, ENaC-beta, and NCC
- expression of NKCC2, ENaC-beta, and NCC after treatment of IL-6 ([1]; IL-6 10, 100 or 500 ng/mL, 24 hours, immunoblotting): increased the expression of NKCC2, ENaC-beta, and NCC
